Laboratory results reported in paper PMC7725785, “TRIB3 promotes MYC-associated lymphoma development through suppression of UBE3B-mediated MYC degradation” (Nature Communications, 2020).

Legend:
[1] = system: TRIB3 with AKT, p62, COP1, and PML; assay: Co-IP of TRIB3/AKT, TRIB3/p62, TRIB3/COP1, TRIB3/PML (off-target); format: cell-based; conditions: result in words
Experimental: Co-IP experiments were performed as described previously. Briefly, cells were collected and lysed for 30 min on ice. Soluble lysates were incubated with the indicated antibodies at 4 °C overnight, followed by incubation with Protein A/G Plus-Agarose (Santa Cruz Biotechnology, TX, USA) at 4 °C for 2 h. Soluble lysates were incubated with the indicated Anti-Myc magnetic beads (Bimake.com, B26302), Anti-Flag Affinity Gel (Bimake.com, B23102) or Anti-HA Affinity Gel (Bimake.com, B23302) at 4 °C overnight. Immunocomplexes were separated from the beads and then boiled for 10 min. The precipitated proteins were subjected to SDS-PAGE and blotted with specific antibodies. For immunoblotting assays, proteins were extracted from cells, spleens, or lymphoma tissues using RIPA buffer (Cell Signaling Technology, MA, USA). A BCA Protein Assay Kit was used to determine protein concentrations. Protein extracts were separated by SDS-PAGE, transferred onto PVDF membranes, and subjected to immunoblot analysis. Western blot images were captured by a Tanon 5200 chemiluminescent imaging system (Tanon, Shanghai, […]). Human lymphoma and benign LN paraffin tissue microarrays were purchased from US Biomax (LM482a).

[2] = Serum ALT, AST, UREA and CRE (liver and renal function) in treated Myc^Eμ mice; conditions: UREA, CRE, result in words
Source text: The serum alanine transaminase (ALT) and aspartate transaminase (AST) levels of MycEµ mice with the indicated
treatment were detected to evaluate liver function (n = 6 per group). Data are represented as means ± SEM. (b) Th e
serum UREA and creatinine (CRE) levels of MycEµ mice with the indicated treatment were detected to evaluate
renal function (n = 6 per group). Data are represented as means ± SEM.

[3] = system: Myc^Eμ BCL mice; assay: Kaplan-Meier survival of Myc^Eμ BCL mice treated with DOX and peptide; format: in vivo, mouse; conditions: DOX 2 mg/kg i.p. once a week and PCM4 5 mg/kg i.v. three times a week, 3 months, result in words
Experimental: (§1) To evaluate the survival rate, these mice were monitored for 8 months (Myc^Eμ mice). […] During the indicated treatments, tumor burden was evaluated by measuring the tumor volume to determine the therapeutic efficacy in the PDX models.

[4] = system: RNAPII; assay: ChIP-seq of RNAPII occupancy in Raji cells; format: cell-based, human; conditions: ChIP-seq with spike-in, result in words
Experimental: ChIP assays were performed according to the manufacturer’s protocol using a SimpleChIP® Plus Sonication Chromatin IP Kit (Cell Signaling Technology, Danvers, MA, USA, (#56383). Briefly, cells were fixated with 1% formaldehyde (Sigma Aldrich, F8775) for 8 min, incubated with glycine (50 mM final) for 10 min and washed three times with PBS. After cell lysis and chromatin extraction, chromatin was sonicated to 100–500 bp using a BioRuptor sonicator (Diagenode), followed by centrifugation at 16,000×g for 10 min at 4 °C. To control for experimental variation, our spike-in data were normalized to a spike-in control consisting of a small amount of chromatin from another species. Briefly, Baf3 cell lysates were sonicated exactly as described above and added at a 1:100 ratio of Raji cells to lysates. […] The Qubit® 3.0 A fluorometer was used for quantitation of the ChIP library. […]
The ChIP libraries were sequenced on Illumina HiSeq platform in 150 bp paired-end reads. After quality control, the clean reads were aligned to the human reference genome (Homo sapiens. GRCh38.87v2) with Bowtie v2.1.0. Unambiguously mapped reads were retained for subsequent generation of binding profiles, heatmaps and calling of peaks. […] Mapped reads were visualized using the Integrative Genomics Viewer (IGV). We next used the murine spike-in to quantitatively normalize different samples. […]

[5] = system: DLBCL^T169 PDX; assay: PDX model tumor growth and weight, DLBCL T169; format: in vivo, human; conditions: result in words
Experimental: Four 5-week-old male NSG mice were implanted subcutaneously with 200 μl of a 1:1 mixture of Matrigel® Basement Membrane Matrix High Concentration (Corning, 354230) and minced fresh tumor fragments resected from lymphoma patients. Approximately 3–4 weeks following implantation, the first-generation mice (G1) were killed, and tumor masses were isolated. The tumor cells were tested for human CD19 (BCL) or CD3 expression (T cell lymphoma), and the remaining tumor mass was cut into 3-mm^3 sections and passaged into 4–5 NSG mice as the second generation (G2). After stable passage of the third generation (G3), the tumor mass of the fourth generation (G4) was equally cut into 3-mm^3 pieces and then passaged subcutaneously into 30–50 NSG mice (100 μl of a 1:2 mixture of Matrigel and tumor tissue) for in vivo treatment (6–8 mice per group, dependent on the experimental drug treatment). During and after treatment with the vehicle control or the indicated agent, tumor burden was evaluated by measuring the tumor volume to determine the therapeutic efficacy in the PDX models. […]
as §1

## HLYVSPWGGKRREQLKHKLEQLR [PCM4, fused peptide generated by linking CM4 to a cell-penetrating peptide]
[1]
  off-target: interactions of TRIB3 with AKT, p62, COP1, and PML: did not disturb the interactions of TRIB3 with these proteins
[2]
  toxic effects (renal/liver function assays): did not exert obvious toxic effects
[3]
  therapeutic efficacy / survival rate in combination with DOX: enhanced the therapeutic efficacy of DOX
[4]
  association of RNAPII with promoters: globally reduced the association of RNAPII with promoters
[5]; PDX T169 (high TRIB3 and MYC expression), PCM4 5 mg/kg and DOX 2 mg/kg
  growth and weights of tumors, combination of PCM4 and DOX: further decreased the growth and weights of tumors
[5]; PDX T169, NSG mice, PCM4 5 mg/kg i.v. three times a week
  tumor growth of PDX: inhibited the tumor growth
